According to patent US5185340A, “Pyrimidinyl arylalkyl ethers with antihypertensive activity” (American Home Products Corporation, priority 1992, dated 1993):

Legend:
angiotensin II receptor = assay: Rat adrenal receptor binding assay, displacement of radiolabeled angiotensin II; parameters: species or system rat (male Sprague-Dawley); settings: rat adrenal cortex membranes; 125I-A II 1 nM; read-out: Inhibition of 125I-Angiotensin II binding, IC50
Method: The high affinity of the compounds for the angiotensin II receptor was established using a rat adrenal receptor binding assay, measuring the displacement of radiolabeled angiotensin II (A II) from the receptor, described as follows: Anesthetize male Sprague-Dawley rats (300-400 g body weight) with CO2 and sacrifice by cervical dislocation. Dissect adrenal glands and keep in ice-cold sucrose buffer. (0.2M sucrose, 1 mM EDTA, 10 mM Trizma base, pH=7.2). Remove medulla by squashing. Mince the cortex, rinse and homogenize in a chilled ground glass tissue grinder with 15 ml sucrose buffer. Centrifuge at 3000× g for 10 min. (Sorvall RCSC centrifuge, SS34 rotor 6200 rpm). Decant supernatant through gauze. Centrifuge combined supernatants at 12000× g for 13 min. (Beckman ultracentrifuge, 80Ti rotor, 13000 rpm). Centrifuge the supernatant from the previous step at 102000× g for 60 min. (Beckman ultracentrifuge,80Ti rotor, 38200 rpm). All steps are carried out at 4° C. Resuspend the pellet in 0.5 mL assay buffer (50 mM Tris HCI, 5 mM MgCl2, 0.2% BSA (proteasefree), pH=7.4, 25° C.). Store on ice. Determine membrane protein by Lowry or Bradford assay with BSA as standard. The binding assay is performed in triplicate, in 12×75 mm plastic test tubes or in 96-well plate (final volume of 0.25 mL). Add 140 μL assay buffer. […] Calculate the quantities of hot A II and the cold A II needed and make the dilution. […]

[1] = tested on: Angiotensin II infused rat; assay: Reduction of blood pressure in Angiotensin II infused rat; assay type: in vivo; settings: 3 mg/kg/ml via duodenal cannula
Method: In accordance with their ability to antagonize angiotensin II, the compounds of this invention show antihypertensive action in the following A II-infused rat model. Rats are anesthetized with Dial-Urethane (0.60 mL/kg, ip) and the trachea cannulated with PE 240. Either one femoral artery and both femoral veins or the carotid artery and the corresponding jugular vein are cannulated with PE 50. If the jugular vein is cannulated, two cannulas are placed in the one vein. The initial portion of the duodenum (just distal to the stomach) is cannulated with PE 50 via a small midline incision. Arterial pressure and heart rate are measured from the arterial cannula. Ten to 15 min are allowed following surgery for stabilization of arterial pressure. Ganglion blockade is then produced by intravenous administration of mecamylamine at 3 mg/kg (1 mL/kg of a 3 mg/mL solution). Ganglion blockade causes a fall in arterial pressure of about 50 mmHg. Mecamylamine is given every 90 min throughout the remainder of the experiment. An A II infusion is then begun into the other venous cannula at 0.25 μg/kg/min (at […]). The A II infusion returns arterial pressure to or slightly above the control level. Once arterial pressure has stabilized with the A II infusion, baseline values for mean arterial pressure (MAP) and heart rate are taken. The test compound, suspended in methyl cellulose, is then administered via the duodenal cannula at 0.1, 3 or, 30 mg/kg in a volume of 1 mL/kg. Mean arterial pressure and heart rate values are tabulated at 15, 30, 60, 90, 120, 150, 180, 210, and 240 min after administration of the test compound.

Row | IC50 (angiotensin II receptor) [nM] | Compound | % decrease in MAP ([1]; 15 min) [%] | % decrease in MAP ([1]; 90 min) [%] | % decrease in MAP ([1]; 240 min) [%]
1 | 38 | FC(F)(F)c1nc2c(c(OCc3ccc(-c4ccccc4-c4nnn[nH]4)cc3)n1)CCCC2 [Example 5, 4-[[2'-(1H-Tetrazol-5-yl)-biphenyl-4-yl]methoxy]-2-trifluoromethyl-5,6,7,8-tetrahydroquinazoline] | 22 | 15 | 0
2 | 200 | CCCc1c(CC)nc(C(F)(F)F)nc1OCc1ccc(-c2ccccc2-c2nnn[nH]2)cc1 [Example 4, 6-Ethyl-5-propyl-4-[[2'-(1H-tetrazol-5-yl)[1,1'-biphenyl]-4-yl]methoxy]-2-(trifluoromethyl)pyrimidine] | – | – | –
